Test results: paper PMC11787520, “Structural basis of the bifunctionality of Marinobacter salinexigens ZYF650^T glucosylglycerol phosphorylase in glucosylglycerol catabolism” (The Journal of Biological Chemistry, 2024)

Experiments:
MsGGP [1] = target: T1, MsGGP (Marinobacter salinexigens, UniProt A0A5B0VBK8, D289A); experiment: ion exchange chromatography, activity relative to wild type; assay type: biochemical; details: 20 mM GG, 20 mM potassium phosphate, pH 6.6, 45 °C
T1 construct: gene gtfA; full length, 480 residues, subunit 54,844 Da, N-terminal His6 tag (pET28b), E. coli BL21(DE3); six protomers in asymmetric unit

MsGGP [2] = target: T2, MsGGP (Marinobacter salinexigens, UniProt A0A5B0VBK8, D190A); experiment: as above; assay type: biochemical; details: 20 mM GG, 20 mM potassium phosphate, pH 6.6, 45 °C
T2 construct: gene gtfA; full length, 480 residues, subunit 54,844 Da, N-terminal His6 tag (pET28b), E. coli BL21(DE3); six protomers in asymmetric unit

MsGGP [3] = target: T3, MsGGP (Marinobacter salinexigens, UniProt A0A5B0VBK8, E231A); experiment: as above; assay type: biochemical; details: 20 mM GG, 20 mM potassium phosphate, pH 6.6, 45 °C
T3 construct: gene gtfA; full length, 480 residues, subunit 54,844 Da, N-terminal His6 tag (pET28b), E. coli BL21(DE3); six protomers in asymmetric unit

MsGGP [4] = target: T4, MsGGP (Marinobacter salinexigens, UniProt A0A5B0VBK8); experiment: X-ray crystal structure, […] Å; assay type: binding; details: active site of chains A and E; reaction intermediate
T4 construct: gene gtfA; full length, 480 residues, subunit 54,844 Da, N-terminal His6 tag (pET28b), E. coli BL21(DE3); six protomers in asymmetric unit

MsGGP [5] = target: T4, MsGGP; experiment: X-ray crystal structure, […] Å; assay type: binding; details: active site, together with glycerol

In the case of OCC(CO)O[C@H]1O[C@H](CO)[C@@H](O)[C@H](O)[C@H]1O [2-O-α-Glucosylglycerol], the “enzyme activity relative to wildtype” value (MsGGP [1]) is reported as “nearly complete loss of enzyme activity following the mutation of these residues to alanine”, the “enzyme activity relative to wildtype” value (MsGGP [2]) is reported as “nearly complete loss of enzyme activity following the mutation of these residues to alanine” and the “enzyme activity relative to wildtype” value (MsGGP [3]) is reported as “nearly complete loss of enzyme activity following the mutation of these residues to alanine”.
For O=P(O)(O)O[C@H]1O[C@H](CO)[C@@H](O)[C@H](O)[C@H]1O [α-D-glucose-1-phosphate], the “X-ray crystal structure, 2.7 Å” value (MsGGP [4]) was “the structure of MsGGP in complex with αGlc1-P was successfully determined”.
OC[C@H]1O[C@H](O)[C@H](O)[C@@H](O)[C@@H]1O [glucose] was tested, and the “X-ray crystal structure, 2.5 Å” value (MsGGP [5]) was “each protomer features an α-glucose and a glycerol molecule occupying the active site”.
